Among the test systems are SF-295; K562; HCT-116; RPMI-8226; OVCAR-4; SW-620; Hs-578T; 786-0; SNB-75; SNB-19; NCI-H460; OVCAR-5; A498; U-251; SN12C; CCRF-CEM; EKVX; MDA-MB-231; ACHN; SF-539.
What all share (experiment): NCI tumour cell line growth inhibition, 48 h

Each structure is given as a SMILES string.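 Grown in 96-well plates, cells were treated for 48 hours with each compound at five concentrations. Insufficient inhibition: endpoint recorded as highest concentration tested. The concentration for 50% growth inhibition is given as GI50.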 The source made the active and inactive calls. Cut-off read from the data, not from the text of the source: active = GI50 up to about 1.1 µM and inactive = higher. Some results are limits rather than exact numbers.

Consider `Nc1nc(SCC(=O)c2ccc(Br)cc2)c2nc[nH]c2n1`, for which the GI50 is 34.8 µM (inactive) in the experiment on SF-295; 18.1 µM (inactive) with K562; 31.2 µM (inactive) in the experiment with HCT-116; 17.1 µM (inactive) with RPMI-8226; 53.3 µM (inactive) in the experiment on OVCAR-4; 46.6 µM (inactive) in the experiment on SW-620. The GI50 with Hs-578T is 21.6 µM (inactive); with 786-0, 42.2 µM (inactive); with SNB-75, 28 µM (inactive); with SNB-19, > 100 µM (inactive); in the experiment with NCI-H460, 28.7 µM (inactive); in the experiment with OVCAR-5 it was 47.1 µM (inactive). Also, the GI50 is 51.6 µM (inactive) with A498; 44.4 µM (inactive) in the experiment with U-251; 34.4 µM (inactive) with SN12C; 6.28 µM (inactive) in the experiment on CCRF-CEM; 38.5 µM (inactive) in the experiment with EKVX; 52.1 µM (inactive) in the experiment with MDA-MB-231. For the same molecule, the GI50 in the experiment on ACHN was 34 µM (inactive).

`O=S(=O)(O)C(c1ccccc1)C(O)c1ccccc1` (configuration not stated): the GI50 in the experiment on SF-295, in the experiment with K562, with HCT-116, with RPMI-8226, in the experiment with OVCAR-4 and with SW-620 was > 100 µM (inactive) each time. Moreover, the GI50 in the experiment on Hs-578T, in the experiment on 786-0, in the experiment with SNB-75, with SNB-19, in the experiment on NCI-H460 and in the experiment on OVCAR-5 was > 100 µM (inactive) in each case. For the same molecule, the GI50 in the experiment on A498, in the experiment on U-251, in the experiment with SN12C, with CCRF-CEM, with EKVX and in the experiment on MDA-MB-231 was > 100 µM (inactive) each time. Further, the GI50 with ACHN is > 100 µM (inactive).

In the case of `O=c1[nH]c2nc3ccccc3c(=O)n2/c1=C/c1ccco1`, the GI50 with SF-295, with K562, in the experiment on HCT-116, with SF-539, in the experiment with RPMI-8226 and in the experiment with OVCAR-4 was > 100 µM (inactive) in each case. Further, the GI50 in the experiment on SW-620, in the experiment with Hs-578T, in the experiment with 786-0, in the experiment on SNB-75, with SNB-19 and with OVCAR-5 was > 100 µM (inactive) throughout. For the same molecule, the GI50 in the experiment on U-251, in the experiment on SN12C, in the experiment with CCRF-CEM, in the experiment on EKVX, with MDA-MB-231 and with ACHN was > 100 µM (inactive) each time.

Take `O=C(Cn1c2ccc(Br)cc2c2nc3ccccc3nc21)NNC(=S)NC1CCCCC1`: the GI50 with SF-295 is 13.1 µM (inactive); with K562, 13.3 µM (inactive); in the experiment on HCT-116, 13.9 µM (inactive); in the experiment with RPMI-8226, 13.9 µM (inactive); in the experiment on OVCAR-4 it was 12.6 µM (inactive); in the experiment on SW-620 it was 15.8 µM (inactive). For the same molecule, the GI50 in the experiment with Hs-578T is 24.5 µM (inactive); in the experiment on 786-0 it was 15.5 µM (inactive); in the experiment on SNB-75 it was 13.8 µM (inactive); with SNB-19, 13.3 µM (inactive); in the experiment on NCI-H460 it was 12.4 µM (inactive); in the experiment with OVCAR-5, 19.5 µM (inactive). For the same molecule, the GI50 in the experiment with A498 was 16.7 µM (inactive); with U-251, 15 µM (inactive); in the experiment on SN12C it was 21.3 µM (inactive); in the experiment on CCRF-CEM, 0.794 µM (active); with EKVX, 18.6 µM (inactive); with MDA-MB-231 it was 15.8 µM (inactive). Further, in the experiment on ACHN, the GI50 is 16 µM (inactive).

Regarding `COc1ccc([N+](=O)[O-])cc1[I+]c1cc([N+](=O)[O-])ccc1OC`, the GI50 in the experiment on SF-295 is 33.3 µM (inactive); in the experiment with K562, 35 µM (inactive); in the experiment on HCT-116, 89.5 µM (inactive); with SF-539 it was 44 µM (inactive); in the experiment with RPMI-8226, 23.7 µM (inactive); in the experiment with SW-620 it was 45.3 µM (inactive). Moreover, the GI50 in the experiment with Hs-578T was 91.6 µM (inactive); in the experiment on 786-0, > 100 µM (inactive); in the experiment on SNB-19, 34.9 µM (inactive); in the experiment on NCI-H460, 22.5 µM (inactive); in the experiment with OVCAR-5, > 100 µM (inactive); in the experiment with A498 it was 81.5 µM (inactive). Also, the GI50 with U-251 is 16.1 µM (inactive); in the experiment on SN12C, 43.5 µM (inactive); in the experiment on CCRF-CEM it was 25.4 µM (inactive); with EKVX, 33.8 µM (inactive); with MDA-MB-231 it was > 100 µM (inactive); with ACHN, 74.3 µM (inactive).

Consider `COc1ccc2c(c1OC(C)=O)C1=CC(=O)CCC13CCNC3C2` (configuration not stated), for which the GI50 in the experiment on SF-295, with K562, in the experiment on HCT-116, with RPMI-8226, in the experiment with OVCAR-4 and with SW-620 was > 100 µM (inactive) in each case. Further, the GI50 in the experiment on Hs-578T, in the experiment on 786-0, with SNB-75, with SNB-19, with NCI-H460 and with OVCAR-5 was > 100 µM (inactive) throughout. The GI50 in the experiment with U-251, in the experiment on SN12C, in the experiment with CCRF-CEM, in the experiment on EKVX, with MDA-MB-231 and in the experiment on ACHN was > 100 µM (inactive) each time.

For `C/C=C(/C)C(=O)O[C@H]1C[C@@H]2[C@@H](O)c3occ(C)c3C[C@]2(C)[C@@H](C)C1`, the GI50 is 15.2 µM (inactive) with SF-295; 10.4 µM (inactive) with K562; 15.2 µM (inactive) with HCT-116; 17.5 µM (inactive) in the experiment on SF-539; 25.6 µM (inactive) in the experiment with RPMI-8226; 18 µM (inactive) in the experiment with OVCAR-4. The GI50 is 16.2 µM (inactive) with SW-620; 28.8 µM (inactive) with Hs-578T; 16.1 µM (inactive) in the experiment on 786-0; 16.8 µM (inactive) in the experiment on SNB-19; 22.4 µM (inactive) in the experiment on NCI-H460; 19.6 µM (inactive) in the experiment on OVCAR-5. Further, the GI50 was 14.8 µM (inactive) with U-251; 14.1 µM (inactive) with SN12C; 18.4 µM (inactive) in the experiment on CCRF-CEM; 15.8 µM (inactive) with EKVX; 15.5 µM (inactive) with MDA-MB-231; 17.1 µM (inactive) in the experiment with ACHN.

Turning to `Fc1cccc(F)c1C1SCc2nc3ccc(Cl)cc3n21` (configuration not stated), the GI50 is > 100 µM (inactive) with SF-295; 51.1 µM (inactive) in the experiment with K562; > 100 µM (inactive) in the experiment with HCT-116; > 100 µM (inactive) in the experiment on SF-539; 82.4 µM (inactive) in the experiment with RPMI-8226; 85.3 µM (inactive) in the experiment with OVCAR-4. Besides, the GI50 is > 100 µM (inactive) in the experiment on SW-620; > 100 µM (inactive) in the experiment on Hs-578T; > 100 µM (inactive) in the experiment with 786-0; 41.1 µM (inactive) with SNB-75; > 100 µM (inactive) in the experiment with SNB-19; > 100 µM (inactive) with NCI-H460. For the same molecule, the GI50 in the experiment with OVCAR-5, in the experiment with U-251, with SN12C, in the experiment with CCRF-CEM, in the experiment on EKVX and in the experiment with MDA-MB-231 was > 100 µM (inactive) each time. Moreover, the GI50 with ACHN is > 100 µM (inactive).

Regarding `COC(=O)C1C/C(=C/N(C)C)C(=S)N1` (configuration not stated), the GI50 in the experiment with SF-295, in the experiment with K562, with HCT-116, in the experiment on RPMI-8226, in the experiment with OVCAR-4 and with SW-620 was > 100 µM (inactive) each time. For the same molecule, the GI50 in the experiment on Hs-578T is > 100 µM (inactive); in the experiment with 786-0, > 100 µM (inactive); with SNB-75, > 100 µM (inactive); in the experiment on SNB-19 it was > 100 µM (inactive); with NCI-H460 it was 11.6 µM (inactive); in the experiment with OVCAR-5, > 100 µM (inactive). In addition, the GI50 in the experiment on A498, in the experiment with U-251, in the experiment with CCRF-CEM, in the experiment on EKVX, in the experiment on MDA-MB-231 and with ACHN was > 100 µM (inactive) each time.

Consider `O=C(O)C(F)(OC(F)(F)C(F)(F)C(F)(F)F)C(F)(F)F` (configuration not stated), for which the GI50 with SF-295, in the experiment with K562, in the experiment with HCT-116, in the experiment on SF-539, in the experiment with RPMI-8226 and in the experiment on OVCAR-4 was > 100 µM (inactive) each time. Besides, the GI50 with SW-620, with Hs-578T, in the experiment on 786-0, in the experiment on SNB-75, with SNB-19 and with NCI-H460 was > 100 µM (inactive) in each case. The GI50 with OVCAR-5, in the experiment with A498, in the experiment with U-251, with SN12C, with EKVX and in the experiment with MDA-MB-231 was > 100 µM (inactive) in each case. For the same molecule, the GI50 in the experiment with ACHN was > 100 µM (inactive).

As for `CC(=O)C1C(=O)C(=O)N(c2ccc(Br)cc2)C1=O` (configuration not stated), the GI50 in the experiment on SF-295, in the experiment on HCT-116, in the experiment on SF-539, with OVCAR-4, in the experiment with SW-620 and in the experiment on Hs-578T was > 100 µM (inactive) each time. The GI50 with 786-0, with SNB-75, with SNB-19, in the experiment on NCI-H460, with OVCAR-5 and in the experiment on U-251 was > 100 µM (inactive) in each case. In addition, the GI50 with SN12C, in the experiment with CCRF-CEM, in the experiment with EKVX, in the experiment with MDA-MB-231 and in the experiment on ACHN was > 100 µM (inactive) each time.

For the origin of these results see ChEMBL document CHEMBL1201862, “PubChem BioAssay data set” (2004).
